Assay [1] deals with T1, GA activity of NIH 3T3 cells stably expressing Dbl or Cdc42(F28L) (Mus musculus, UniProt D3Z7P3).
T1 construct: endogenous in cells; host or cells: NIH 3T3 cells stably expressing Dbl or Cdc42(F28L); mitochondrial fraction
T1 sequence (D3Z7P3 55-603 isoform D3Z7P3-2): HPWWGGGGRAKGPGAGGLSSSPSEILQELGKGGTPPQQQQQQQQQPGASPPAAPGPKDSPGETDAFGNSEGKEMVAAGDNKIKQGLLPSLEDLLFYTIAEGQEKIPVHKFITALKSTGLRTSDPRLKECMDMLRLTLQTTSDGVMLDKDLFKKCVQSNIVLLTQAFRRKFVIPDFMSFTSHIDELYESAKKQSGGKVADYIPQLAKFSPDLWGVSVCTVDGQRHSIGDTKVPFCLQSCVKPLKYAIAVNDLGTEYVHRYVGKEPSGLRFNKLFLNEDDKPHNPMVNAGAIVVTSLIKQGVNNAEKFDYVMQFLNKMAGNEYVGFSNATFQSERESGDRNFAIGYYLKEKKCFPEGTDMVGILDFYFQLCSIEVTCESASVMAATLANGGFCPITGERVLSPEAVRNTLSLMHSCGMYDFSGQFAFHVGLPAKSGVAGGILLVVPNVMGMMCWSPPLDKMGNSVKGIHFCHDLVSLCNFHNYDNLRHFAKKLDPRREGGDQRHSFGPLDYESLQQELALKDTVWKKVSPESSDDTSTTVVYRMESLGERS
Put plainly: GA activity in mitochondrial fractions of treated transformed NIH 3T3 cells. Type of assay: cell-based. The method, then:
(§1) 100%=620 moles of glutamine hydrolyzed per minute per mole of enzyme. Data represent the average of 3 experiments (±s.d.). […] Following precipitation of the beads and re-suspension, the samples were analyzed by Western blotting with anti-V5 antibody. […] Data represent the average of 3 experiments (±s.d.). […] Data represent the average of 3 experiments (±s.d.). […] Data represent the average of 3 experiments (±s.d.). FIG. 3E NIH 3T3 cells transiently expressing Dbl were assayed for focus formation in the presence of 10 μM 968 alone or together with 7 mM dimethyl α-ketoglutarate. […] 100%=680 nM glutamine hydrolyzed per minute per 10^5 cells. Data are the average of 3 experiments (±s.d.). […] 100%=750 nM glutamine hydrolyzed per minute per 10^5 cells. Data represent the average of 3 experiments (±s.d.).
(§2) FIGS. 4A-E illustrate the role of glutaminase C activity in cellular transformation. […] Data represent the average of 3 experiments (±s.d.). […] Data represent the average of 3 experiments (±s.d.). […] 100% represents the activity measured in untreated Dbl-transformed cells. The data represent the average of 2 experiments. […] 100% represents the activity measured in untreated SKBR3 cells. The data represent the average of 2 experiments. […] Data represent the average of 3 experiments (±s.d.).
FIGS. 11A-E illustrate the effects of different treatments on GA activity. […] The addition of Pi stimulated the GA activity in control 3T3 cells, Dbl-expressing cells, and Cdc42(F28L)-expressing cells by ˜6-fold, 2-fold, and 3-fold, respectively. 100% represents the Pi-stimulated activity measured for Dbl-transformed cells that were not treated with 968. Data is the average of 3 experiments (±s.d.). […] The addition of Pi stimulated the GA activity of HMECs, MDA-MB231 cells, and SKBR3 cells by ˜5-fold, 2-fold, and 1.4-fold, respectively. 100% represents the Pi-stimulated activity for SKBR3 cells that were not treated with 968. Data are the average of 3 experiments (±s.d.). […] Mitochondrial fractions were prepared from equal numbers of cells and assayed for GA activity in the presence or absence of 133 mM Pi. The data are plotted as the percentage of GA activity measured for untreated SKBR3 cells and represent the average of 2 experiments. […] 100% represents the Pi-stimulated activity measured for untreated Dbl-transformed cells. The data represent the average of 2 experiments. […] 100% represents the Pi-stimulated activity for untreated SKBR3 cells. The data represent the average of 2 experiments.
Dbl expressing NIH 3T3 cells were treated for 48 hours in the presence or absence of 968 (10 μM), Bay 11-7082 (2 μM) or Rapamycin (100 nM). Mitochondria were then isolated from the treated cells and assayed for glutaminase activity in the absence or presence of phosphate.
Mitochondrial preparations were obtained using the mitochondria isolation kit from QIAGEN (Cat #37612). A suspension containing 2×10^7 cells was transferred into a 50 ml conical tube and centrifuged at 500×g for 10 minutes at 4° C. The pellets were resuspended in 2 ml of ice-cold lysis buffer (supplied by QIAGEN) and incubated for 10 minutes at 4° C. using an end-over-end shaker. The lysates were centrifuged at 1000×g for 10 minutes at 4° C., and the pellets were resuspended in a buffer supplied by the manufacturer and disrupted completely by using a blunt-ended, 23-gauge needle and a syringe, followed by centrifugation at 6000×g for 20 minutes at 4° C. […]

The next assay concerns the target T2, GAC phosphorylation (Mus musculus, UniProt D3Z7P3).
T2 construct: expressed in transfected cells; host or cells: NIH 3T3 cells (stably expressing Dbl, or parental), transient transfection
T2 sequence (D3Z7P3 55-603 isoform D3Z7P3-2 limits assumed): T1 sequence (D3Z7P3 55-603 isoform D3Z7P3-2)
Put plainly: 2-D gel analysis of V5-GAC phosphorylation states from treated Dbl cells. Type of assay: cell-based. Conditions: 48 hours. The method, then:
NIH 3T3 cells stably expressing the Dbl oncogene, were transiently transfected with DNA encoding a VS-tagged GAC, and then one sample was treated with 968 (10 μM) for 48 hours. The cells were then harvested and the ectopically expressed GAC was isolated by immunoprecipitation via the V5 tag. The samples were then subjected to 2-D gel analysis to separate the V5-GAC by charge and size, and the V5-tagged GAC was visualized by Western blotting using an anti-V5 antibody.
GAC runs distinctly on a 2D gel depending whether it is expressed in normal (untransformed) NIH 3T3 cells or in NIH 3T3 cells which are transformed by the Dbl oncogene. Specifically, there is one major species of GAC present in NIH 3T3 cells whereas in Dbl cells, two additional species of GAC appear which migrate with a more negative charge but at the same molecular mass as the original species (FIG. 21, first and second panels). […] Additionally, it has been shown that small molecules of the 968 family which are able to inhibit GAC in vivo do so by blocking the ability of GAC to become phosphorylated. Thus, it was of great interest to identify the amino acid(s) on GAC whose phosphorylation is causal in the activation of this enzyme.

In assay [2] the test system is GA activity of SKBR3 cells. Put plainly: GA activity in mitochondrial fractions of treated SKBR3 cells. Type of assay: cell-based, human. The note with it: 2 μM. The method, then:
as §1, §2
FIGS. 11A-E illustrate the effects of different treatments on GA activity. […] The addition of Pi stimulated the GA activity in control 3T3 cells, Dbl-expressing cells, and Cdc42(F28L)-expressing cells by ˜6-fold, 2-fold, and 3-fold, respectively. 100% represents the Pi-stimulated activity measured for Dbl-transformed cells that were not treated with 968. Data is the average of 3 experiments (±s.d.). […] The addition of Pi stimulated the GA activity of HMECs, MDA-MB231 cells, and SKBR3 cells by ˜5-fold, 2-fold, and 1.4-fold, respectively. […] The data are plotted as the percentage of GA activity measured for untreated SKBR3 cells and represent the average of 2 experiments. […] 100% represents the Pi-stimulated activity measured for untreated Dbl-transformed cells. […]

One compound from patent US20130252983A1, “ACTIVATING PHOSPHORYLATION SITE ON GLUTAMINASE C” (CORNELL UNIVERSITY, priority 2010, published 2013) can be followed below.

Structures are written as SMILES.

On to `CC(C)(C)c1ccc(S(=O)(=O)/C=C/C#N)cc1` [BAY 11-7082, E3((4-t-butylphenyl)-sulfonyl)-2-propenenitrile], for which, in assay [1] (Dbl expressing NIH 3T3 cells, 48 hours, Bay 11-7082 (2 μM), Rapamycin (100 nM)), the mitochondrial glutaminase activity result was “significant loss of glutaminase activity”. The “direct stimulation of the enzyme by phosphate (Pi-stimulated GA activity)” value is listed as “little or no effect” in assay [1] (Dbl-transformed cells, 2 μM) and “little or no effect” in assay [2]. Further, the “basal (phosphate-independent) GA activity” value is given as “significantly reduces their basal GA activity” in assay [1] (Dbl-transformed cells, 2 μM, 2 days) and “significantly reduces their basal GA activity” in assay [2]. The “most negative migrating major species of GAC on 2D gel” value at GAC phosphorylation was “loss of the most negative migrating major species of GAC”.
